# Patent US20030040436A1 (priority 2000, published 2003)
# Experiments:
# [1] = tested on: moss; test: Control of moss on greenhouse wall and ground; settings: 5% (w/v), sprayed to run-off, one application, within 24 hours
# [2] = tested on: Tiffway hybrid bermudagrass and SR1020 bentgrass; test: Phytotoxic field testing on grass test surfaces; format: in vivo; settings: highest concentration (0.8% w/v), one square foot test surfaces
# Description: This formulation was applied to two grass species, Tiffway hybrid bermudagrass and SR1020 bentgrass. One square foot test surfaces of each grass type were used. The test formulation was applied to test surfaces in dilutions corresponding to 0.8, 0.3, and 0.1% (w/v) benzyl benzoate.
# [3] = tested on: Phormidium algae; test: Filter paper assay of algicidal activity; format: cell-based; settings: for Zone of Inhibition: observed 4 days after start
# Description: Briefly, the filter paper assay is designed to approximate an environment such as that found on a golf course, where algal pests can be particularly damaging. Blended fragment suspensions of Phormidium algae were passed through a coarse Whatman filter paper circle to collect the algal cells. The filter paper was then placed in a large Petri dish containing moist sand. The desired concentration of 10% benzyl benzoate formulation (0.8, 0.3 and 0.1% (w/v) final concentration) was placed on marked areas of the algae field to determine toxic effects. Observations were made 4 days after the test was initiated and were compared to control experiments using the known pesticide Daconil.
# [4] = tested on: Phormidium algae; test: Well-plate assay of algicidal activity; settings: for Lethality: 24 hours under fluorescent light
# Description: Liquid cultures of Phormidiumalgae were homogenized into individual cells in a standard laboratory blender apparatus. One hundred fifty μl of the homogenized algal suspension were added to the wells of 96-well assay plates using multitip-transfer pipettes. To each well, 150 μl of various dilutions of the test formulation were added, such that final concentrations of bcnzyl benzoate in the test wells were 0.8%, 0.3%, and 0.1%. The plates were allowed to incubation under fluorescent light for 24 hours.
# [5] = tested on: SRI 020 bentgrass or Tiffway hybrid bermudagrass; test: Field test, spray application: toxicity to the grass; format: in vivo, SRI 020 bentgrass; Tiffway hybrid bermudagrass; settings: all concentrations tested (0.8, 0.3, 0.1% w/v), single spray application
# Description: (§1) Each of the three concentrations and negative controls without benzyl benzoate were applied to one square foot of SRI 020 bentgrass or Tiffway hybrid bermudagrass, which was naturally infected with Phormidiumalgae, with a single spray application. The turfgrass was examined empirically for control of the algae as well and toxicity to the grass.
# [6] = tested on: Phormidium algae; test: Field test, spray application: control of algae on turfgrass; format: in vivo; settings: single spray application, several days following
# Description: as §1
Structure (SMILES),phytotoxicity to moss [1],phytotoxicity [2],Zone of Inhibition ([3]; 0.1% (w/v) benzyl benzoate),killing Phormidium ([3]; 0.3% (w/v) benzyl benzoate),Zone of Inhibition ([3]; 0.3% (w/v) benzyl benzoate),killing Phormidium ([3]; 0.8% (w/v) benzyl benzoate),Zone of Inhibition ([3]; 0.8% (w/v) benzyl benzoate),Comments (efficacy compared to Daconil) ([4]; 0.1% benzyl benzoate),Lethality ([4]; 0.1% benzyl benzoate final concentration),Comments (efficacy compared to Daconil) ([4]; 0.3% benzyl benzoate),Lethality ([4]; 0.3% benzyl benzoate final concentration),Comments (efficacy compared to Daconil) ([4]; 0.8% benzyl benzoate),Lethality ([4]; 0.8% benzyl benzoate final concentration),phytotoxic effect (chemical burn) on the two grass species [5],algae control ([6]; 0.3% (w/v)),algae control ([6]; 0.8% (w/v))
"CCCCCCC(C=O)=Cc1ccccc1 [HCA, α-hexyl cinnamic aldehyde, reference compound]",phytotoxic to moss,,,,,,,,,,,,,,,
O=C(OCc1ccccc1)c1ccccc1 [benzyl benzoate],,Only small signs of phytotoxicity,no,very effective,yes,very effective,yes,Same efficacy as,no,Superior to Daconil,yes,Superior to Daconil,yes,minimal phytotoxic effect,significant level of control,most effective algae control
O=C(OCc1ccccc1)c1ccccc1O [benzyl salicylate],phytotoxic to moss,,,,,,,,,,,,,,,
